Like-named read-outs stand apart in the source and are kept apart here.
Assays:
[1] = tested on: iPS cell-derived CAR-T cells; experiment: Proliferation test, ITS-X and taurine added to 0.3 mM boric acid-containing serum-free medium; type: cell-based; conditions: for viability (%): serum-free expansion medium, boric acid 0.3 mM
Description: A total of five types of expansion culture media were prepared: Advanced DMEM/F12 medium (Thermo Fisher) containing additives shown in the “expansion culture medium” column in Table 4, and said medium further added with either 0.3 mM boric acid (Sigma-Aldrich), 0.3 mM boric acid and 1×ITS-X ((Insulin-Transferrin-Selenium-Ethanolamine Supplements) Gibco), 0.3 mM boric acid and 1×ITS-X and 1 mM taurine (Sigma-Aldrich), or 0.3 mM boric acid and 1×ITS-X and 3 mM taurine (medium supplemented with only additives in Table 4, medium supplemented with additives in Table 4+0.3 mM boric acid, medium supplemented with additives in Table 4+0.3 mM boric acid+ITS-X, medium supplemented with additives in Table 4+0.3 mM boric acid+ITS-X+1 mM taurine, medium supplemented with additives in Table 4+0.3 mM boric acid+ITS-X+3 mM taurine). After 3 days of activation culture, the cells were collected from the T225 flask and suspended in each of the five types of expansion culture media at 40,000 cells/mL, and cultured under 5% CO2/37° C. using G-Rex (registered trademark) 10M (Wilson Wolf). Then, on the fifth day of culture, some of the cells were recovered from G-Rex (registered trademark) 10M and the cells were counted, and the medium was replaced with the respective medium. On the sixth day of culture, some of the cells were recovered from G-Rex (registered trademark) 10M and the cells were counted. On the 7th and 10th days of culture, some of the cells were recovered from the plate, counted, and seeded onto a G-Rex (registered trademark) 24-well plate (Wilson Wolf) containing each medium at 50,000 cells/mL. On the 12th and 14th days of culture, some of the cells were similarly collected from the G-Rex (registered trademark) 24-well plate, counted, and the medium was replaced with each medium.
In the expansion culture of item 5 in Example 4, the cell number and viability of iPS cell-derived CAR-T cells were measured on days 3, 5, 6, 7, 10, 12, and 14 of culture.

[2] = tested on: iPS cell-derived CAR-T cells; conditions: boric acid concentration range of 0.2 mM to 0.9 mM, serum-free medium; FIG. 3
Description: After 3 days of activation culture, the cells were collected from the T225 flask and suspended in each of the five types of expansion culture media at 50,000 cells/mL, and cultured under 5% CO2/37° C. using G-Rex (registered trademark) 24-well plate (Wilson Wolf). Then, on the fifth day of culture, some of the cells were recovered from G-Rex (registered trademark) 24-well plate and the cells were counted, and the medium was replaced with the respective medium. On the 7th day of culture, the cells were counted by a similar method, seeded in a fresh G-Rex (registered trademark) 24-well plate at 50,000 cells/mL, and cultured in each medium. On the 10th and 12th days of culture, some of the cells were similarly collected from the plate, counted, and the medium was replaced with each medium.

[3] = tested on: human-derived primary T cell-derived CAR-T cells; conditions: boric acid 0.3 mM added to serum-free medium (BM220720); FIG. 5
[4] = tested on: iPS cell-derived CAR-T cells; conditions: 0.3 mM boric acid added to serum-free medium; FIG. 2
Description: After 3 days of activation culture, the cells were collected from the T225 flask and suspended in each of the two types of expansion culture media at 40,000 cells/mL, and cultured under 5% CO2/37° C. using G-Rex (registered trademark) 10M (Wilson Wolf). Then, on the fifth day of culture, some of the cells were collected from G-Rex (registered trademark) 10M and counted, and the medium was replaced with each medium. On the 7th and 10th days of culture, the cells were counted by a similar method, seeded in a G-Rex (registered trademark) 24-well plate at 50, 000 cells/mL, and cultured in each medium. On the 12th and 14th days of culture, some of the cells were similarly collected from the plate, counted, and the medium was replaced with each medium.

[5] = tested on: iPS cell-derived CAR-T cells; conditions: 0.3 mM boric acid added to 1% FBS-containing medium; FIG. 1
Source text: Then, on the fifth day of culture, some of the cells were recovered from G-Rex (registered trademark) 10M and the cells were counted, and the medium was replaced with the respective medium. On the sixth day of culture, some of the cells were recovered from G-Rex (registered trademark) 10M and the cells were counted. […] On the 12th and 14th days of culture, some of the cells were similarly collected from the G-Rex (registered trademark) 24-well plate, counted, and the medium was replaced with each medium.

SMILES	viability (%) ([1]; Day 5)	viability (%) ([1]; Day 6)	viability (%) ([1]; Day 7)	viability (%) ([1]; Day 10)	viability (%) ([1]; Day 12)	viability (%) ([1]; Day 14)	cell viability [2]	proliferation (cell proliferation fold from day 0 of expansion culture) [3]	proliferation (cell proliferation fold from day 0 of expansion culture) [4]	proliferation (cell proliferation fold from day 0 of expansion culture) [5]	maximum difference (%) in viability between (3): without addition of Taurine and (4) or (5): with addition of Taurine ([1]; Day 5) [%]	maximum difference (%) in viability between (3): without addition of Taurine and (4) or (5): with addition of Taurine ([1]; Day 6) [%]	maximum difference (%) in viability between (3): without addition of Taurine and (4) or (5): with addition of Taurine ([1]; Day 7) [%]	maximum difference (%) in viability between (3): without addition of Taurine and (4) or (5): with addition of Taurine ([1]; Day 10) [%]	maximum difference (%) in viability between (3): without addition of Taurine and (4) or (5): with addition of Taurine ([1]; Day 12) [%]	maximum difference (%) in viability between (3): without addition of Taurine and (4) or (5): with addition of Taurine ([1]; Day 14) [%]
OB(O)O [Boric acid, boric acid]	88.7	88.6	87.5	90.3	90.4	88.3	not influenced	promoted	promoted	promoted	–	–	–	–	–	–
NCCS(=O)(=O)O [Taurine, taurine]	–	–	–	–	–	–	–	–	–	–	2.9	1.6	2.5	3.7	1.9	1.3
